Patent US20230131402A1, “SPIRO-LACTAM NMDA RECEPTOR MODULATORS AND USES THEREOF” (Aptinyx Inc., priority 2016, published 2023)
Read-outs that look alike come from different tables or passages of the source.

Experiments:
NMDAR2B = biological target: T1, NMDAR2B (Homo sapiens, UniProt Q13224); test: [3H]MK-801 binding, NMDAR2B expressing HEK cell membranes; assay type: biochemical; details: for Emax: read-out: NMDAR2B A: % maximal [3H]MK-801 binding relative to 1 mM glycine
T1 construct: expressed in transfected cells; host or cells: HEK cells (membrane extract)
Experimental: (§1) Assays were conducted as described by Moskal et al., “GLYX-13: a monoclonal antibody-derived peptide that acts as an N-methyl-D-aspartate receptor modulator,” Neuropharmacology, 49, 1077-87, 2005. These studies were designed to determine if the test compounds act to facilitate NMDAR activation in NMDAR2A, NMDAR2B, NMDAR2C or NMDAR2D expressing HEK cell membranes as measured by increases in [^3H]MK-801 binding.
(§2) In the assay, 300 μg of NMDAR expressing HEK cell membrane extract protein was preincubated for 15 minutes at 25° C. in the presence of saturating concentrations of glutamate (50 μM) and varying concentrations of test compound (1×10^−15M−1×10^−7M), or 1 mM glycine. Following the addition of 0.3 μCi of [^3H]MK-801 (22.5 Ci/mmol), reactions were again incubated for 15 minutes at 25° C. (nonequilibrium conditions). Bound and free [^3H]MK-801 were separated via rapid filtration using a Brandel apparatus.
(§3) In analyzing the data, the DPM (disintegrations per minute) of [^3H]MK-801 remaining on the filter were measured for each concentration of test compound or for 1 mM glycine. The DPM values for each concentration of a ligand (N=2) were averaged. The baseline value was determined from the best fit curve of the DPM values modeled using the GraphPad program and the log(agonist) vs. response(three parameters) algorithm was then subtracted from all points in the dataset. The % maximal [^3H]MK-801 binding was then calculated relative to that of 1 mM glycine: all baseline subtracted DPM values were divided by the average value for 1 mM glycine. The EC50 and % maximal activity were then obtained from the best fit curve of the % maximal [^3H]MK-801 binding data modelled using the GraphPad program and the log(agonist) vs. response(three parameters) algorithm.
(§4) The tables below summarize the results for the wild type NMDAR agonists NMDAR2A, NMDAR2B, NMDAR2C, and NMDAR2D, and whether the compound is not an agonist (−), is an agonist (+), or is a strong agonist (++), where column A is based on the % maximal [^3H]MK-801 binding relative to 1 mM glycine (−=0; <100%=+; and >100%=++); and column B is based on log EC50 values (0=−; ≥1×10^−9M (e.g., −8)=+; and <1×10^−9M (e.g., −10)=++).

NMDAR2A = biological target: T2, NMDAR2A (Homo sapiens, UniProt Q12879); test: [3H]MK-801 binding, NMDAR2A expressing HEK cell membranes; assay type: biochemical; details: for Emax: read-out: NMDAR2A A: % maximal [3H]MK-801 binding relative to 1 mM glycine
T2 construct: expressed in transfected cells; host or cells: HEK cells (membrane extract)
Experimental: as §1, §2, §3, §4

IV pharmacokinetics = assay type: in vivo, Sprague Dawley rats; details: Sprague Dawley, rat, in vivo, iv, 2 mg/kg, normal saline (compounds marked * in 1% NMP and 99% normal saline); for C0: read-out: C0; for Vd: read-out: Vss
From the text: The table below summarizes the results of the IV pharmacokinetics.

[1] = Oral pharmacokinetics (plasma, brain, CSF); details: rat, 10 mg/kg, per os; for bioavailability / AUC(0-t) / Cmax / Tmax: Sprague Dawley, plasma, po; for bioavailability: % F; for AUC(0-t): AUClast; for AUC(0-t) / Cmax / Tmax: normal saline (compounds marked * in 1% NMP and 99% normal saline)
Experimental: Plasma, brain, and CSF samples were analyzed at various time points over a 24 hour period.

[2] = system: rats' response (reduced floating time); test: Porsolt forced swim test; assay type: in vivo, Sprague Dawley rats; details: for % reduction in float time: relative to vehicle group
Experimental: A non-clinical in vivo pharmacology study (Porsolt assay) was performed to measure antidepressant-like effects. A negative control (0.5% sodium carboxymethyl cellulose in 0.9% sterile saline vehicle) and a positive control (fluoxetine) are shown for comparison against test compound. The study allowed for the evaluation of the effects of each compound on the Porsolt forced swim test as assessed by the rats' response (reduced floating time) during a 5-minute swimming test.
Male 2-3 month old Sprague Dawley rats were used (Harlan, Indianapolis, Ind.). Rats were housed in Lucite cages with aspen wood chip bedding, maintained on a 12:12 light:dark cycle (lights on at 5 AM), and given ad libitum access to Purina lab chow (USA) and tap water throughout the study.
The Porsolt forced swim test adapted for use in rats was performed as described by Burgdorf et al., (The long-lasting antidepressant effects of rapastinel (GLYX-13) are associated with a metaplasticity process in the medial prefrontal cortex and hippocampus. Neuroscience 308:202-211, 2015). Animals were placed in a 46 cm tall×20 cm in diameter clear glass tube filled to 30 cm with tap water (23±1° C.) for 15 min on the first day (habituation) and 5 min on the subsequent test day. Positive control fluoxetine was dosed 3 times (24 h, 5 h and 1 h) prior to testing. Animals were tested 1 h post-dosing with the test compounds or vehicle. Animals received a 15 min habituation session 1 day before the 5 min test. A subset of compounds tested at 1 h post-dosing were retested at 1 wk post-dosing in the same sets of animals. Water was changed after every other animal. Animals were videotaped, and floating time as defined as the minimal amount of effort required to keep the animals head above water was scored offline by a blinded experimenter with high inter-rater reliability (Pearson's r>0.9).
Each compound tested at dose level shown. Significance vs. vehicle group for each experiment is marked. […] A compound marked “No” was not statistically significant from vehicle. Data was averaged for test compound and vehicle groups (N approximately 8 per group) and the percent reduction in floating for group treated with test compound relative to group treated with vehicle is shown.

[3] = 50 μM glutamate, read-out: NMDAR2B B: log EC50 (converted)
[4] = 50 μM glutamate, read-out: NMDAR2A B: log EC50 (converted)
[5] = 1 wk post-dose, 0.1 mg/kg, 0.1 mg/kg
[6] = 1 wk post-dose, 0.1 mg/kg, Yes = p<=0.05 from vehicle
[7] = 1 h post-dose, 0.1 mg/kg, 0.1 mg/kg
[8] = 1 h post-dose, 0.1 mg/kg, Yes = p<=0.05 from vehicle

T2 sequence (Q12879 23-1464, species assumed, other chains not shown): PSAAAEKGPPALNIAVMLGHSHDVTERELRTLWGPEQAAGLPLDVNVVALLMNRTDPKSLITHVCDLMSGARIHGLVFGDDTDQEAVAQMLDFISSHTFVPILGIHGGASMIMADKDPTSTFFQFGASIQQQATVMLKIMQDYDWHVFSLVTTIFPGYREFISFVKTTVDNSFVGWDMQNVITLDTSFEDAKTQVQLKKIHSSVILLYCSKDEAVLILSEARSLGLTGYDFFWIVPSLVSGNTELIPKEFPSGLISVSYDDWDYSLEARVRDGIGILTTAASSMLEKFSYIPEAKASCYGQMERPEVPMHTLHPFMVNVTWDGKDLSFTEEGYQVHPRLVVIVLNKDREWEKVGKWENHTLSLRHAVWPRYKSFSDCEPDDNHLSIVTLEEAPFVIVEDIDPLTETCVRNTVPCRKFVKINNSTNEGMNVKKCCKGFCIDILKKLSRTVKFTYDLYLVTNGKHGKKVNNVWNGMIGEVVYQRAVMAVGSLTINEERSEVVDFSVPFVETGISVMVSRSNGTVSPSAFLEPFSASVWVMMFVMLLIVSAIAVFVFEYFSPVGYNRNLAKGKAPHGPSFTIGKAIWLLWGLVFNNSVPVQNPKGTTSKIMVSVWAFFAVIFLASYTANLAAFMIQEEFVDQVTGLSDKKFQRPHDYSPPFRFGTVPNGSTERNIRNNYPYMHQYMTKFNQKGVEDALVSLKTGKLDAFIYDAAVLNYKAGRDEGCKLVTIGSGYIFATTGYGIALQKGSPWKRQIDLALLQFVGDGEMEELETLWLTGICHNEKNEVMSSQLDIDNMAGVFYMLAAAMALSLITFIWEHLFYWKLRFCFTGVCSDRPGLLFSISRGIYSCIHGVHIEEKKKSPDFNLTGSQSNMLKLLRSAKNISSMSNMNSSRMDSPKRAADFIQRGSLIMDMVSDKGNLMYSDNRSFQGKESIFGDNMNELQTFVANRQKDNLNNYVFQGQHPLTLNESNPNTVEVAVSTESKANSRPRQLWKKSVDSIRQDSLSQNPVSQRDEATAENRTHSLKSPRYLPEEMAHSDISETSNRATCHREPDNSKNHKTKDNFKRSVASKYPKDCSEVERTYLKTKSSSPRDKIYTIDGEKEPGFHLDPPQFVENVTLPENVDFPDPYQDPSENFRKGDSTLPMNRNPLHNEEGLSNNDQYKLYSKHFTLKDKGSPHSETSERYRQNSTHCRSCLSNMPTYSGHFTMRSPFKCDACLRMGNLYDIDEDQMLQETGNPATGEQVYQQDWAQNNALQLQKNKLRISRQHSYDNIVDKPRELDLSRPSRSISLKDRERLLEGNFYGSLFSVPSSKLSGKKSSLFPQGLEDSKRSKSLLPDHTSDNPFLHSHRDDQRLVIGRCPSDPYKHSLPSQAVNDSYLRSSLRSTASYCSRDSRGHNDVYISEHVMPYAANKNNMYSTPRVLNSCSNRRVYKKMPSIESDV
T1 sequence (Q13224 27-1484, species assumed, other chains not shown): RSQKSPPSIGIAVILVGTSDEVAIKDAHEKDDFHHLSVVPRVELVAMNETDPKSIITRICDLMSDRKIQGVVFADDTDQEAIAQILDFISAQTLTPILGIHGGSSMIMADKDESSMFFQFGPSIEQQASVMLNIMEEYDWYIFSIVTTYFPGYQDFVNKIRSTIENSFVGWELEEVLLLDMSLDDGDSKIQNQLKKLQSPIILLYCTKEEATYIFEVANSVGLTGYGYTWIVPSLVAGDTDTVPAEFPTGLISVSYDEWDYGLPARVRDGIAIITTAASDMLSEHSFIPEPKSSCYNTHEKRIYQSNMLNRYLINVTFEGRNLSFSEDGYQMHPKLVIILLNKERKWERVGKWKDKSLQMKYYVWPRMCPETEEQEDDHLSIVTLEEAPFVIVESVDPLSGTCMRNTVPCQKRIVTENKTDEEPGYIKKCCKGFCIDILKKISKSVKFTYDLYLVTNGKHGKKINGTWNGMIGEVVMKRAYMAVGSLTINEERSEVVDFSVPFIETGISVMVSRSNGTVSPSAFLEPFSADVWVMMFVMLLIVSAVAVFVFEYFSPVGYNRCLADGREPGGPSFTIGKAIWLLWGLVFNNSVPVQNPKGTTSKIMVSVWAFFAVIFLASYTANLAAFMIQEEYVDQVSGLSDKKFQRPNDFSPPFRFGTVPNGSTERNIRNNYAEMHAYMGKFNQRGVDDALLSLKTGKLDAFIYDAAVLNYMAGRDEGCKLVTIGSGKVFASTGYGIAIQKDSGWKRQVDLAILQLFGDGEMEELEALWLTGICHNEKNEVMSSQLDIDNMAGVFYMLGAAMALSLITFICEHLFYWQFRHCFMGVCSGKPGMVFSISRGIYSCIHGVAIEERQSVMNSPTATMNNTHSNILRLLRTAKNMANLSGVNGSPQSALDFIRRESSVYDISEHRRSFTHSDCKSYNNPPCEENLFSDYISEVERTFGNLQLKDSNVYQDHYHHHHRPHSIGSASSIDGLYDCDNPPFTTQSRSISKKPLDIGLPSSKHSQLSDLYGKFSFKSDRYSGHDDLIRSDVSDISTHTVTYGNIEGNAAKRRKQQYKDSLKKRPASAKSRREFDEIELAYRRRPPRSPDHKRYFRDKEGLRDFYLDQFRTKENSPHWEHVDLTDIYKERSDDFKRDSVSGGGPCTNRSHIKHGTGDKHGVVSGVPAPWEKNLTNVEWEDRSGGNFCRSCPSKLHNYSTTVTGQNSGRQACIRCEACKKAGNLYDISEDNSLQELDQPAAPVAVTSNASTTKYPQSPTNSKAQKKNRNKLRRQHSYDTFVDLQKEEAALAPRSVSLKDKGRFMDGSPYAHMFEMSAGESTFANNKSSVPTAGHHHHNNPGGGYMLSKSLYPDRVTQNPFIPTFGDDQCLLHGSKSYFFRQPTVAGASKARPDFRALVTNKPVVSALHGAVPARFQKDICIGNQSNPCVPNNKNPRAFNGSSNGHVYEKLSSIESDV

| Compound | NMDAR2B A: % maximal [3H]MK-801 binding relative to 1 mM glycine (NMDAR2B; 50 μM glutamate) | NMDAR2A A: % maximal [3H]MK-801 binding relative to 1 mM glycine (NMDAR2A; 50 μM glutamate) | EC50 (NMDAR2B; [3]) [nM] | EC50 (NMDAR2A; [4]) [nM] | AUC(0-t) (IV pharmacokinetics) [ng·h/mL] | clearance (IV pharmacokinetics) [mL/min/kg] | half-life (IV pharmacokinetics) [min] | C0 (IV pharmacokinetics) [ng/mL] | Vd (IV pharmacokinetics) [L/kg] | bioavailability [1] [%] | AUC(0-t) [1] [ng·h/mL] | Cmax [1] [ng/mL] | Tmax [1] [min] | other results |
| --- | --- | --- | --- | --- | --- | --- | --- | --- | --- | --- | --- | --- | --- | --- |
| O=C1NCC12CN(Cc1ccccc1)CCN2Cc1ccccc1 (single isomer, unassigned) [EA-2, 5,8-Dibenzyl-2,5,8-Triazaspiro[3.5]Nonan-1-One] | − (−=0) | − (−=0) |  |  |  |  |  |  |  |  |  |  |  |  |
| CC(C)(C)OC(=O)N1CCNC2(CCNC2=O)C1 (single isomer, unassigned) [EM, Tert-Butyl 1-Oxo-2,6,9-Triazaspiro[4.5]Decane-9-Carboxylate] | ++ (>100%=++) | + (<100%=+) | > 1 | < 1 |  |  |  |  |  |  |  |  |  |  |
| CC(C)(C)OC(=O)N1CCNC2(CCNC2=O)C1 (single isomer, unassigned) [EN, Tert-Butyl 1-Oxo-2,6,9-Triazaspiro[4.5]Decane-9-Carboxylate] | − (−=0) | − (−=0) |  |  |  |  |  |  |  |  |  |  |  |  |
| CC(C)(C)OC(=O)N1CCNC2(C1)CN(CC(N)=O)C2=O (stereo not drawn) [ER-141] | + (<100%=+) | − (−=0) | < 1 |  | 1670 | 19.9 | 33 | 4280 | 0.7 | 31 | 2620 | 962 | 49.8 | CSF Cmax [1]: 42 ng/mL |
| CC(C)(C)OC(=O)N1CCNC2(C1)CN(CC(N)=O)C2=O (stereo not drawn) [ER-142] | − (−=0) | + (<100%=+) |  | < 1 |  |  |  |  |  |  |  |  |  |  |
| O=C1NCCC12CNCCN2 (stereo not drawn) [ES-301] |  |  | < 1 |  |  |  |  |  |  |  |  |  |  | Emax (NMDAR2B; 50 μM glutamate): < 100%; Emax (NMDAR2A; 50 μM glutamate): 0% |
| O=C1NCCC12CNCCN2 (stereo not drawn) [ES-302] | ++ (>100%=++) | − (−=0) | < 1 |  | 1720 | 18.9 | 142 | 6090 | 1.33 | 12 | 1040 | 340 | 49.8 |  |
| CN1CCN(Cc2ccccc2)C2(CCNC2=O)C1 (stereo not drawn) [ES-315] |  |  | < 1 | < 1 |  |  |  |  |  |  |  |  |  | % reduction in float time [2, 5]: 25.0%; Significance vs. vehicle [2, 6]: No; % reduction in float time [2, 7]: 44.1%; Significance vs. vehicle [2, 8]: Yes; Emax (NMDAR2B; 50 μM glutamate): < 100%; Emax (NMDAR2A; 50 μM glutamate): < 100% |
| CN1CCN(Cc2ccccc2)C2(CCNC2=O)C1 (stereo not drawn) [ES-316] | + (<100%=+) | + (<100%=+) |  |  | 1110 | 30.6 | 138 | 2090 | 1.75 | 55 | 3030 | 2770 | 15 | % reduction in float time [2, 5]: 42.4%; Significance vs. vehicle [2, 6]: Yes; % reduction in float time [2, 7]: 49.4%; Significance vs. vehicle [2, 8]: Yes; EC50 (NMDAR2B; read-out: NMDAR2B B: log EC50 (converted), 50 μM glutamate): < 1 nM; EC50 (NMDAR2A; read-out: NMDAR2A B: log EC50 (converted), 50 μM glutamate): < 1 nM; CSF Cmax [1]: 430.2 ng/mL; Brain Cmax [1]: 1583 ng/mL |
| CNCCC(Oc1ccc(C(F)(F)F)cc1)c1ccccc1 (stereo not drawn) [Fluoxetine, fluoxetine, reference compound] |  |  |  |  |  |  |  |  |  |  |  |  |  | Significance vs. vehicle ([2]; positive control, 20 mg/kg, dosed 3 times (24 h, 5 h and 1 h) prior to testing): Yes |

Now from value to molecule, other results behind:

| NMDAR2B A: % maximal [3H]MK-801 binding relative to 1 mM glycine (NMDAR2B; 50 μM glutamate) | NMDAR2A A: % maximal [3H]MK-801 binding relative to 1 mM glycine (NMDAR2A; 50 μM glutamate) | EC50 (NMDAR2B; [3]) [nM] | EC50 (NMDAR2A; [4]) [nM] | AUC(0-t) (IV pharmacokinetics) [ng·h/mL] | clearance (IV pharmacokinetics) [mL/min/kg] | half-life (IV pharmacokinetics) [min] | C0 (IV pharmacokinetics) [ng/mL] | Vd (IV pharmacokinetics) [L/kg] | bioavailability [1] [%] | AUC(0-t) [1] [ng·h/mL] | Cmax [1] [ng/mL] | Tmax [1] [min] | Compound | other results |
| --- | --- | --- | --- | --- | --- | --- | --- | --- | --- | --- | --- | --- | --- | --- |
| + (<100%=+) | + (<100%=+) | < 1 | < 1 | 1790 | 18.2 | 279 | 2770 | 1.74 | 72 | 6470 | 4760 | 19.8 | CC(=O)N1CCN(Cc2ccccc2)C2(CCNC2=O)C1 (stereo not drawn) [ES-319] | % reduction in float time ([2]; 1 wk post-dose, 0.1 mg/kg): 60.5%; Significance vs. vehicle [2, 6]: Yes; % reduction in float time ([2]; 1 h post-dose, 0.1 mg/kg): 76.3%; Significance vs. vehicle [2, 8]: Yes; CSF Cmax [1]: 520 ng/mL; Brain Cmax [1]: 758 ng/mL |
| − (−=0) | − (−=0) |  |  |  |  |  |  |  |  |  |  |  | CC(=O)N1CCN(Cc2ccccc2)C2(CCNC2=O)C1 (stereo not drawn) [ES-320] |  |
| ++ (>100%=++) | + (<100%=+) | < 1 | > 1 | 577 | 58.6 | 10.2 | 2570 | 0.71 | 16 | 466 | 795 | 15 | CC(C)C(=O)N1CCN(Cc2ccccc2)C2(CCNC2=O)C1 (stereo not drawn) [ES-321] |  |
| − (−=0) | − (−=0) |  |  |  |  |  |  |  |  |  |  |  | CC(C)C(=O)N1CCN(Cc2ccccc2)C2(CCNC2=O)C1 (stereo not drawn) [ES-322] |  |
|  |  | < 1 | < 1 |  |  |  |  |  |  |  |  |  | C[C@@H](O)[C@H](N)C(=O)N1CCNC2(CCNC2=O)C1 (stereo partly drawn) [ES-335] | % reduction in float time [2, 5]: 72.9%; Significance vs. vehicle [2, 6]: Yes; % reduction in float time [2, 7]: 58.5%; Significance vs. vehicle [2, 8]: Yes; Emax (NMDAR2B; 50 μM glutamate): < 100%; Emax (NMDAR2A; 50 μM glutamate): < 100% |
